# Legend:
# [1] = system: endogenous TLR2 and TLR7 in RAW-Blue™ Cells; assay: RAW-Blue Cells NF-κB/AP-1 SEAP reporter assay; format: cell-based, mouse; conditions: 24 hours, OD at 655 nm, FIG. 4
# Method in brief: (§1)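 HEK293 cells stably expressing the given TLR, or RAW 264.7-derived cells (50,000 or 100,000 cells/well respectively), carry an NF-κB/AP-1-inducible SEAP reporter. Conjugated TLR7-TLR2 agonists at final 10 μg/mL to 10 pg/ml, 24 h at 37° C. SEAP read colorimetrically as OD at 655 nm in detection medium.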
# [2] = system: HEK293 cells; assay: Cell transfection with SEAP plasmid, HEK293; format: cell-based, human; conditions: in complex with pVitro14 LGFP SEAP plasmid, 48 hours, SEAP expression; FIG. 5A
# Description: The TLR7-TLR2 molecules were tested for their ability as polyamine molecules to transport plasmid DNA (pDNA) into cells. The pVitro14 LGFP SEAP plasmid (InvivoGen) was complexed to TLR7-TLR2 polyamine molecules and to the control cationic lipid transfection agent, LyoVec™ (InvivoGen). The human HEK293 (ATCC, CRL-1573) and mouse B16-F1 melanoma (ATCC, CRL-6323) cell lines were seeded at a density of 50 000 cells/well and 20 000 cells/well respectively, in the absence or presence of different volumes of the plasmid encoding for the SEAP protein in complex with TLR7-TLR2 polyamine molecules for 48 hours at 37° C. and 10% CO2. Transfection efficiency was assessed by measuring SEAP reporter gene expression: 20 μl of supernatant was sampled and mixed with 180 μl of QUANTI-Blue™ Detection (InvivoGen). In the presence of alkaline phosphatase SEAP, the color of QUANTI-Blue™ changes from pink to purple/blue. The intensity of the blue hue reflects the activity of SEAP. The levels of SEAP secretion were determined quantitatively by reading the OD at 620-655 nm using a spectrophotometer, iMark™ Microplate Reader (BIO-RAD).
# [3] = biological target: T1, murine TLR7 (Mus musculus, UniProt P58681); assay: HEK-Blue mTLR7 NF-κB/AP-1 SEAP reporter assay; format: cell-based; conditions: HEK-Blue mTLR7 cells, 10 μg/mL to 10 pg/ml, 24 hours, OD at 655 nm, FIG. 2
# T1 construct: host or cells: HEK293 (HEK-Blue™ mTLR7)
# T1 sequence (P58681 27-1050): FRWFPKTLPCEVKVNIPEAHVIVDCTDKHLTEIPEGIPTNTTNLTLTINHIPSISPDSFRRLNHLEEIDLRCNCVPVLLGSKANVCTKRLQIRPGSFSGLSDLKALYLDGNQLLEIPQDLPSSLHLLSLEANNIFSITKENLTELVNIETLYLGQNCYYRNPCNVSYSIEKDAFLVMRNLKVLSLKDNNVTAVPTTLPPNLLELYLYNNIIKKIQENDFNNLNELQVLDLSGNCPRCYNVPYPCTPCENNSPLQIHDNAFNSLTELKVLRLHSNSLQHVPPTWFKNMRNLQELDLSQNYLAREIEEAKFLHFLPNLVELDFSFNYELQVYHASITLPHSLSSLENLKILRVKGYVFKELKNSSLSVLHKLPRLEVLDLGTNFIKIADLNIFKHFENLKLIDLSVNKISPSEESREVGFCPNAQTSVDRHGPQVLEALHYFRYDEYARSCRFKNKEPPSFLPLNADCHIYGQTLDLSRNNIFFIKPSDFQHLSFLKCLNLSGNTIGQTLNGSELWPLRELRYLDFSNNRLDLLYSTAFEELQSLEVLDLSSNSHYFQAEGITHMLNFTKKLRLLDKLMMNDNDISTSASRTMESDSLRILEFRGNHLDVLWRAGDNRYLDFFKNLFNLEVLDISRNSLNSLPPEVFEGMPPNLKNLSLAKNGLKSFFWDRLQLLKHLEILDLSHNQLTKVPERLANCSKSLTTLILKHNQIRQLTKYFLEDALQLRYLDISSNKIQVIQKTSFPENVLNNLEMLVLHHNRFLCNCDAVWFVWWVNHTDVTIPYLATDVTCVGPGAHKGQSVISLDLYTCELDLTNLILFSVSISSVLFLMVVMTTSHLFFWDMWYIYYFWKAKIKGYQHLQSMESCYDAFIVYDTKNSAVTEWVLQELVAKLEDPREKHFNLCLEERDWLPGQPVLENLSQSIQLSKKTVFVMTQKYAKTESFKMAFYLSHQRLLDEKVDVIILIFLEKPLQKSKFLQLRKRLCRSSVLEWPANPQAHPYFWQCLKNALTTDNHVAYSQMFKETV
# Method in brief: as §1
Molecule,ability to activate endogenous TLR2 and TLR7 in RAW-Blue Cells [1],ability to transfect HEK293 cells [2],ability to activate mTLR7 [3]
"CCCCCCCCCCCCCCCC(=O)OCC(CSC[C@H](N)C(=O)N[C@@H](CCC(=O)NCCCNCCCCNCCCN)C(=O)Nc1ccc(Cn2c(O)nc3c(N)nc(NCCCC)nc32)cc1)OC(=O)CCCCCCCCCCCCCCC (stereo partly drawn) [CL527, (6R,9S)-6,25-diamino-9-(4-((6-amino-2-(butylamino)-8-hydroxy-9H-purin-9-yl)methyl)phenylcarbamoyl)-7,12-dioxo-4-thia-8,13,17,22-tetraazapentacosane-1,2-diyl dipalmitate]",activate endogenous TLR2 and TLR7,transfect HEK293 cells,activate mTLR7
"CCCCCCCCCCCCCCCC(=O)OCC(CSC[C@H](N)C(=O)NCCCNCCCCNCCCNC(=O)CNC(=O)c1ccc(Cn2c(O)nc3c(N)nc(NCCCC)nc32)cc1)OC(=O)CCCCCCCCCCCCCCC (stereo partly drawn) [CL553, (20R)-20-amino-1-(4-((6-amino-2-(butylamino)-8-hydroxy-9H-purin-9-yl)methyl)phenyl)-1,4,19-trioxo-22-thia-2,5,9,14,18-pentaazapentacosane-24,25-diyl dipalmitate]",activate endogenous TLR2 and TLR7,transfect HEK293 cells,activate mTLR7
"CCCCCCCCCCCCCCCC(=O)OCC(CSC[C@H](N)C(=O)N[C@@H](COC(=O)c1ccc(Cn2c(O)nc3c(N)nc(NCCCC)nc32)cc1)C(=O)NCCCNCCCCNCCCN)OC(=O)CCCCCCCCCCCCCCC (stereo partly drawn) [CL514, (6R,9S)-6,23-diamino-9-((4-((6-amino-2-(butylamino)-8-hydroxy-9H-purin-9-yl)methyl)benzoyloxy)methyl)-7,10-dioxo-4-thia-8,11,15,20-tetraazatricosane-1,2-diyl dipalmitate]",activate endogenous TLR2 and TLR7,transfect HEK293 cells,activate mTLR7
"(6S,9S,12S,15S,18S,21R)-6,25-diamino-21-(4-((6-amino-2-(butylamino)-8-hydroxy-9H-purin-9-yl)methyl)phenylcarbamoyl)-12,15,18-tris(4-aminobutyl)-9-(hydroxyl methyl)-7,10,13,16,19-pentaoxo-4-thia-8,11,14,17,20-pentaazapentacosane-1,2-diyl dipalmitate [CL413]",activate endogenous TLR2 and TLR7,lack the ability to transfect cells,activate mTLR7
"CCCCCCCCCCCCCCCC(=O)N[C@@H](CSCC(COC(=O)CCCCCCCCCCCCCCC)OC(=O)CCCCCCCCCCCCCCC)C(=O)N[C@@H](CO)C(=O)N[C@@H](CCCCN)C(=O)N[C@@H](CCCCN)C(=O)N[C@@H](CCCCN)C(=O)N[C@@H](CCCCN)C(=O)Nc1ccc(Cn2c(O)nc3c(N)nc(NCCCC)nc32)cc1 (stereo partly drawn) [CL534, ((6R,9S,12S,15S,18S,21S)-25-amino-21-(4-((6-amino-2-(butylamino)-8-hydroxy-9H-purin-9-yl)methyl)phenylcarbamoyl)-12,15,18-tris(4-aminobutyl)-9-(hydroxylmethyl)-7,10,13,16,19-pentaoxo-6-palmitamido-4-thia-8,11,14,17,20-pentaazapentacosane-1,2-diyl dipalmitate]",activate endogenous TLR2 and TLR7,lack the ability to transfect cells,activate mTLR7
